Consider 102 molecules from the CATMoS acute toxicity set (Mansouri et al. 2021).

The nature of the series: GHS categories as the set defines them, by LD50: 1 up to 5, 2 up to 50, 3 up to 300, 4 up to 2000, 5 above 2000 mg/kg. Conditions: rat; in vivo; po.
Turning to `CC(=O)O[C@@H]1C[C@H](C)CC[C@H]1C(C)C`, the GHS category is on record as 5.
In the case of `CC(C)(CO)c1cc(Cl)nnc1Cl`, the GHS category worked out at 4.
On to `COc1ccc(CCN2CCC(Nc3nc4ccccc4n3Cc3ccc(F)cc3)CC2)cc1`, for which the GHS category amounted to 5.
On to `O=C(O)CNC(=O)c1ccco1`, for which the GHS category is recorded as 5.
Molecule `CNc1ccc(C(=O)c2cccs2)cc1O` showed a GHS category of 5.
Consider `CCC1COC(Cn2cncn2)(c2cc3ccccc3o2)O1` (configuration not stated), for which the GHS category worked out at 4.
Then `CCCCOC(=O)Nc1nc(N2CC=CCC2)cc2nc(=O)on12`, with 5; and `CNC(=O)Oc1c(C(C)(C)C)cc(C)cc1C(C)(C)C`, with 5; and `O=S(=O)(O)CC(O)CNC1CCCCC1` (configuration not stated), with 5.
The molecule `CC(C)(C)c1ccc(OP(Oc2ccc(C(C)(C)C)cc2C(C)(C)C)Oc2ccc(C(C)(C)C)cc2C(C)(C)C)c(C(C)(C)C)c1` showed a GHS category of 5.
Then `CCC(C)CCC(C)(O)CC` (configuration not stated), with 5.
Then `C[C@H]1O[C@]2(CS1)CN1CCC2CC1`, with 3; and `O=C(c1ccc(OC2CCOC2)cc1)c1cc(I)ccc1Cl` (configuration not stated), with 4.
In the case of `N#CC(CCc1ccc(Cl)cc1)(Cn1cncn1)c1ccccc1` (configuration not stated) it was 5; in that of `C=CCOC(=O)Nc1nc(N2CC=CCC2)cc2nc(=O)on12`, 5; in that of `CN1C(=O)COc2cc(C(=O)c3ccccc3)ccc21`, 5.
In turn, `CCOC(=O)c1cnn(C)c1S(=O)(=O)NC(=O)Nc1nc(OC)cc(OC)n1` registered a GHS category of 5.
Molecule `CCCCCCCC[N+](C)(C)[O-]` yielded a GHS category of 5.
In turn, `CCCCCCCCCCCCCCCC(=O)OC` showed a GHS category of 5.
Molecule `CC1=C(C(=O)O)N2C(=O)[C@@H](NC(=O)C(N)C3=CCC=CC3)[C@H]2SC1` (some centres not stated) showed a GHS category of 5.
For `Cn1c(=O)c2c(ncn2CC(=O)N2CCOCC2)n(C)c1=O`, the GHS category stood at 5.
Turning to `CCOC(=O)C(=O)Nc1cc(SCCOC)ncn1`, the GHS category is given as 4.
Turning to `CN(C)C1C(=O)C(=C(O)NCN2CCCC2C(=O)O)C(=O)C2(O)C(=O)C3=C(O)c4c(O)cccc4C(C)(O)C3CC12` (configuration not stated), the GHS category came to 5.
`CCOC(=O)c1cc(Br)ccc1OC(N)=O` showed a GHS category of 5.
Molecule `CC(O)CCCCO` (configuration not stated) yielded a GHS category of 5.
For the molecule `OCCOc1ccc(OCCO)cc1`, the GHS category turned out to be 5.
For `C[SiH]1O[SiH](C)O[SiH](C)O[SiH](C)O[SiH](C)O1` (configuration not stated), the GHS category was 5.
In the case of `COCC1CN(c2ccc(OCc3cccc(C#N)c3)cc2)C(=O)O1` (configuration not stated) it was 5; in that of `CCCCCCCCOC(=O)c1ccc(C(=O)OCCCCCCCC)c(C(=O)OCCCCCCCC)c1`, 5.
`CCOC(=O)C(=O)Nc1cc(OCCOC)nc(C)n1`: the GHS category is 4.
Take `COc1nc(Nc2ccc(C=Cc3ccc(Nc4nc(OC)nc(N(CCO)CCO)n4)cc3S(=O)(=O)O)c(S(=O)(=O)O)c2)nc(N(CCO)CCO)n1`: the GHS category amounted to 5.
Regarding `NC(=O)Oc1ccc(Cl)cc1C(=O)Oc1ccc(Cl)cc1Cl`, the GHS category stood at 5.
For `O=C(c1ccc(Cl)cc1)c1ccc2[nH]c(=O)oc2c1`, the GHS category is given as 5.
Molecule `CCCS(=O)(=O)Nc1ccc(F)c(C(=O)c2c[nH]c3ncc(Br)cc23)c1F` had a GHS category of 5.
Turning to `Cc1cc2cccnc2n(-c2cccc(C(F)(F)F)c2)c1=O`, the GHS category is 3.
The molecule `CN1CC(c2ccn[nH]2)CC2c3cccc4[nH]cc(c34)CC21` (configuration not stated) yielded a GHS category of 4.
Regarding `O=C1c2ccc(N(c3ccc(Cl)cc3)c3ccc(Cl)cc3)cc2C(=O)N1Cc1cccnc1`, the GHS category turned out to be 5.
The molecule `CC(C)c1c(C(=O)Nc2ccccc2)c(-c2ccccc2)c(-c2ccc(F)cc2)n1CC[C@@H]1C[C@H](CC(=O)OC(C)(C)C)OC(C)(C)O1` came in with a GHS category of 5.
In the case of `COc1cc2c(cc1OC)C(c1ccccc1F)N(c1ccccc1)CC2` (configuration not stated), the GHS category is 4.
For `CCOC(=O)CC#N`, the GHS category is 5.
In turn, `CC1=C(C(=O)O)N2C(=O)[C@@H](NC(=O)[C@H](N)C3=CCC=CC3)[C@H]2SC1` came in with a GHS category of 5.
In the case of `C=CC(C)(CCC=C(C)C)OC=O` (configuration not stated) it was 5; in that of `Cc1cccc2ncc(C(=O)NC3CCCC3)c(=O)n12`, 3.
`NCC1CCC(N)C(OC2C(N)CC(N)C(OC3OC(CO)C(O)C(N)C3O)C2O)O1` (configuration not stated) came in with a GHS category of 5.
The molecule `CN(CC(=O)O)N=O` registered a GHS category of 5.
In turn, `O=[N+]([O-])c1cc(C(F)(F)F)c(Cl)c([N+](=O)[O-])c1Nc1ncc(C(F)(F)F)cc1Cl` displayed a GHS category of 5.
Turning to `CCN(CC)CCC(C#N)(CC=C(C)C)c1cccc2ccccc12` (configuration not stated), the GHS category is on record as 4.
`CCCCCCCCCCCCCCCCOC(=O)Oc1c(Cl)cc(C(=O)OCC)cc1Cl` yielded a GHS category of 5.
`CC(=O)N(C)C(=O)Oc1cccc2c1OC1(CCCCC1)O2` yielded a GHS category of 4.
With `CCNC(=O)CCCSCc1nnnn1CC`, the GHS category amounted to 4.
Molecule `C=CC(=C)CCC=C(C)CCC=C(C)C=O` registered a GHS category of 5.
Consider `ClC(=Nc1c(Cl)c(Cl)c(Cl)c(Cl)c1Cl)C(Cl)(Cl)Cl`, for which the GHS category was determined as 4.
Then `CCCCCCCCCCCCCCCNP1(=S)OCc2cc([N+](=O)[O-])ccc2O1` (configuration not stated), with 3; and `COC[C@H]1CO[C@@](Cn2ccnc2)(c2cc3cc(Cl)cc(Cl)c3o2)O1`, with 4.
Consider `c1ccc([I+]c2ccccc2)cc1`, for which the GHS category stood at 4.
`Cn1c(=O)oc2cc(C(=O)c3ccc(Cl)cc3)ccc21` came in with a GHS category of 5.
Molecule `CCOC(=O)[C@H](CCc1ccccc1)N[C@H]1CS[C@H](c2cccs2)CN(CC(=O)O)C1=O` displayed a GHS category of 5.
For `Cn1nnnc1SCCCS(=O)c1ccccn1` (configuration not stated), the GHS category is listed as 4.
With `CC(=O)CC(=O)Nc1cc(C)c(NC(=O)CC(C)=O)cc1C`, the GHS category is reported as 5.
In the case of `CCCCCCCCCCCC(=O)N(CCCC)CCCC` it was 5.
In the case of `COC(=O)CCC(=O)OC` it was 5; in that of `CCCCCCCCC=O`, 5.
For `C[C@@H]1CN2CC(=O)Nc3ccc(Cl)cc3[C@]2(c2ccccc2)O1`, the GHS category came out at 5.
On to `Nc1ccc(CCc2ccc(N)cc2)cc1`, for which the GHS category is recorded as 5.
`CCc1ccc(OCC=C(C)CCC2OC2(C)C)cc1` (configuration not stated) returned a GHS category of 5.
`COC(=O)/C=C(/C)N[C@@H](C(=O)O)c1ccc(O)cc1` gave a GHS category of 5.
The molecule `CC1CCCCCCCCCCCCC(=O)C1` (configuration not stated) displayed a GHS category of 5.
The molecule `CCC(C)(C)OC(=O)N[C@@H](Cc1c[nH]c2ccccc12)C(=O)N[C@@H](CCSC)C(=O)N[C@@H](CC(=O)O)C(=O)N[C@@H](Cc1ccccc1)C(N)=O` displayed a GHS category of 5.
In the case of `CCOC(=O)C1OC1C(=O)NC(CC(C)C)C(=O)NCCC(C)C` (configuration not stated) it was 5; in that of `CC1CC(OC(=O)c2ccccc2O)CC(C)(C)C1` (configuration not stated), 5; in that of `c1ccc2sc(SN3CCOCC3)nc2c1`, 5.
On to `CC(C)=CCN(CC=C(C)C)CCC(C#N)(CCN(CC=C(C)C)CC=C(C)C)c1cccc2ccccc12`, for which the GHS category stood at 4.
On to `CNC(=O)Oc1cccc2c1OC(C)O2` (configuration not stated), for which the GHS category is listed as 3.
With `CCc1cc(Cc2cc(CC)cc(C(C)(C)C)c2O)c(O)c(C(C)(C)C)c1`, the GHS category amounted to 5.
In the case of `Clc1cc(Cl)c2oc(C3(Cn4cncn4)OCCO3)cc2c1`, the GHS category turned out to be 4.
With `O=c1c2cc(Oc3ccc(Cl)cc3)ccc2nnn1Cc1cccnc1`, the GHS category stood at 5.
As for `CC(C)C1CCCCC1`, the GHS category was 5.
`Clc1cc(Cl)ncn1` had a GHS category of 3.
Turning to `CC(=O)NC(C(=O)O)C(C)(C)S` (configuration not stated), the GHS category came out at 4.
Molecule `COC(=O)C(O)(c1cccs1)c1cccs1` registered a GHS category of 5.
The molecule `CCCCCC(CCC)COC(=O)c1ccccc1C(=O)OCC(CCC)CCCCC` (configuration not stated) returned a GHS category of 5.
Then `CN1C(=O)COc2cc(C(=O)c3ccc(Cl)cc3)ccc21`, with 5; and `O=C(Cl)CCCCCl`, with 4; and `CCCN(C=Nc1cccc(=O)[nH]1)CCC`, with 5.
`COC(=O)c1cc(Oc2ccc(C(=O)OC)cc2N)cc(C(=O)OC)c1` came in with a GHS category of 5.
For `Cc1cccc2ncc(C(=O)NC34CC5CC(CC(C5)C3)C4)c(=O)n12`, the GHS category worked out at 3.
`CCCCCCC1(C)CCC(=O)O1` (configuration not stated) returned a GHS category of 5.
Then `CC(C)(C)c1cc(Cn2c(=O)n(Cc3cc(C(C)(C)C)c(O)c(C(C)(C)C)c3)c(=O)n(Cc3cc(C(C)(C)C)c(O)c(C(C)(C)C)c3)c2=O)cc(C(C)(C)C)c1O`, with 5.
Then `CCC(C)(Oc1ccc(Cl)cc1)C(=O)OC1CC(C)CC(C)(C)C1` (configuration not stated), with 5; and `CN1OCCC(=Cc2cc(C(C)(C)C)c(O)c(C(C)(C)C)c2)C1=O`, with 4.
In turn, `COc1c(O)cc2c(c1O)C1OC(CO)C(O)C(O)C1OC2=O` (configuration not stated) came in with a GHS category of 5.
For the molecule `CCCCCCCCCCCCCCCC(=O)OCCCCCCCCCCCCCCCC(C)C`, the GHS category is 5.
In the case of `COc1ccc2c(c1)CCN(c1ccccc1)C2c1ccccc1Cl` (configuration not stated), the GHS category is recorded as 4.
As for `Cc1ccccc1OC(=O)c1ccccc1OC(N)=O`, the GHS category is 5.
The molecule `CCCc1c(Cc2ccc(-c3ccccc3-c3nn[nH]n3)cc2)cnc2ncnn12` gave a GHS category of 4.
Then `O=C1c2c(Br)c(Br)c(Br)c(Br)c2C(=O)N1CCN1C(=O)c2c(Br)c(Br)c(Br)c(Br)c2C1=O`, with 5; and `CC(C)=CCN(CC=C(C)C)CCC(C#N)(CC=C(C)C)c1cccc2ccccc12` (configuration not stated), with 4.
For `CNC(=O)Oc1cccc2c1OCO2`, the GHS category amounted to 3.
Consider `CNCC(O)CO` (configuration not stated), for which the GHS category turned out to be 5.
`Cc1ccc(SCOC(Cn2ccnc2)c2ccc(Cl)cc2Cl)cc1` (configuration not stated): the GHS category worked out at 5.
Then `CC1CC(OC(=O)C(C)Oc2cccc(C(F)(F)F)c2)CC(C)(C)C1` (configuration not stated), with 5; and `CC(C)c1nc2ccccc2c(=O)n1-c1ccncc1`, with 4.
